Numbers after ± are expanded uncertainties.

A short description of the series: activity coefficient (dimensionless); of the first substance listed, at infinite dilution; xn = mol fraction of the nth substance listed. Particulars: Liquid, Chromatography, x1 = 0.

With `CC1CCCC1` [methylcyclopentane] + CCCC[N+](C)(CCCC)CCCC.O=S(=O)([N-]S(=O)(=O)C(F)(F)F)C(F)(F)F, the activity coefficient (322.85 K) is 4.75 ± 0.22, the activity coefficient (332.65 K) turned out to be 4.74 ± 0.22 and the activity coefficient (343.15 K) is 4.5 ± 0.21.
For `CCCCCCCCCCCC` [dodecane] + CCCCCCCC[N+](C)(C)C.O=S(=O)([N-]S(=O)(=O)C(F)(F)F)C(F)(F)F, the activity coefficient runs as follows: (322.85 K) 33.1 ± 1.5; (332.65 K) 30.5 ± 1.4; (343.15 K) 27.1 ± 1.3.
The corresponding values for `C#CCCCC` [1-hexyne] + CCCCCCCC[N+](CCCCCCCC)(CCCCCCCC)CCCCCCCC.O=S(=O)([N-]S(=O)(=O)C(F)(F)F)C(F)(F)F are 0.75 ± 0.03, 0.76 ± 0.03 and 0.76 ± 0.03.
For `CC1CCCCC1` [methylcyclohexane] + CCCCCCCCCC[N+](C)(C)C.O=S(=O)([N-]S(=O)(=O)C(F)(F)F)C(F)(F)F, the activity coefficient by setting is: (322.85 K) 3.57 ± 0.16; (332.65 K) 3.57 ± 0.16; (343.15 K) 3.39 ± 0.15.
On to `CCCCCCCCCC` [decane] + CCCC[N+](C)(CCCC)CCCC.O=S(=O)([N-]S(=O)(=O)C(F)(F)F)C(F)(F)F, for which the activity coefficient was 19.6 ± 0.91 (322.85 K), 19.2 ± 0.89 (332.65 K) and 17.8 ± 0.82 (343.15 K).
The corresponding values for `CC1CCCCC1` [methylcyclohexane] + CCCC[N+](C)(CCCC)CCCC.O=S(=O)([N-]S(=O)(=O)C(F)(F)F)C(F)(F)F are 5.92 ± 0.27, 5.91 ± 0.27 and 5.58 ± 0.26.

For the origin of these results see the NIST ThermoML archive (doi:10.1021/je200637v).
